{
  "source": "the NIST ThermoML archive (doi:10.1016/j.jct.2010.12.021)",
  "assay": "Molar enthalpy of transition or fusion",
  "settings": "Crystal; DSC",
  "note": "Numbers after ± are expanded uncertainties.",
  "data": [
    {"compound": "CCCCCC[n+]1cccc2ccccc21.O=S(=O)([N-]S(=O)(=O)C(F)(F)F)C(F)(F)F", "note": "[1-hexylquinolinium bis(trifluoromethylsulfonyl)amide]", "values": [
      {"measurement": "Molar enthalpy of transition or fusion", "value": "63.5 ± 2.8", "unit": "kJ/mol"}
    ]}
  ]
}
